Assay results reported in PubChem BioAssay (NCI).
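Protocol summary: plate cells (96-well), add compound at 5 concentrations, incubate 48 h, interpolate endpoints linearly. TGI marks complete inhibition of growth.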

Columns and labels:
Assay in all cases: growth of human tumour cells (NCI), 48 h
[1] = system: A498 renal
[2] = system: BT-549 breast
[3] = system: CAKI-1 renal
[4] = system: CCRF-CEM leukemia
[5] = system: COLO 205 colon
[6] = system: DU-145 prostate
[7] = system: HCC-2998 colon
[8] = system: HCT-116 colon
[9] = system: HCT-15 colon
[10] = system: HL-60(TB) leukemia
[11] = system: HOP-62 NSCLC
[12] = system: HOP-92 NSCLC
[13] = system: HS 578T breast
[14] = system: HT29 colon
[15] = system: IGROV1 ovarian
[16] = system: K-562 leukemia
[17] = system: KM12 colon
[18] = system: M14 melanoma
[19] = system: MALME-3M melanoma
[20] = system: MDA-MB-231 breast
[21] = system: MDA-MB-435
[22] = system: MDA-N
[23] = system: MOLT-4 leukemia
[24] = system: NCI-H226 lung
[25] = system: NCI-H23 lung
[26] = system: NCI-H460 lung
[27] = system: NCI-H522 lung
[28] = system: NCI/ADR-RES ovarian
[29] = system: OVCAR-3 ovarian
[30] = system: OVCAR-4 ovarian
[31] = system: OVCAR-5 ovarian
[32] = system: OVCAR-8 ovarian
[33] = system: PC-3 prostate
[34] = system: RPMI-8226 leukemia
[35] = system: RXF 393 renal
[36] = system: SF-295 CNS
[37] = system: SK-MEL-2 melanoma
[38] = system: SK-MEL-28 melanoma
[39] = system: SK-MEL-5 melanoma
[40] = system: SK-OV-3 ovarian
[41] = system: SN12C renal
[42] = system: SNB-19 CNS
[43] = system: SNB-75 CNS
[44] = system: SR leukemia
[45] = system: T-47D breast
[46] = system: U251 CNS
[47] = system: UACC-62 melanoma
[48] = system: UO-31 renal
[49] = system: 786-0 renal
[50] = system: A549 NSCLC
[51] = system: ACHN renal
[52] = system: EKVX NSCLC
[53] = system: LOX IMVI melanoma
[54] = system: MCF7 breast
[55] = system: SF-268 CNS
[56] = system: SF-539 CNS
[57] = system: SW-620 colon
[58] = system: TK-10 renal
[59] = system: UACC-257 melanoma

CC(=O)Oc1ccccc1[C@H]1CC(=O)C[C@H](c2ccccc2OC(C)=O)C12C(=O)c1ccccc1C2=O was tested, and the TGI [1] was greater than 100 µM, the TGI [2] was 84.5 µM and the TGI [3] was greater than 100 µM. For the same compound, the TGI [4] was greater than 100 µM, the TGI [5] was 54.3 µM and the TGI [6] was greater than 100 µM. It also gave a TGI [7] of 85.4 µM, a TGI [8] of 88.9 µM and a TGI [9] greater than 100 µM. It also gave a TGI [10] greater than 100 µM, a TGI [11] greater than 100 µM and a TGI [12] greater than 100 µM. The TGI [13] was greater than 100 µM, the TGI [14] was greater than 100 µM and the TGI [15] was greater than 100 µM. The TGI [16] was 84 µM, the TGI [17] was greater than 100 µM and the TGI [18] was 70.9 µM. For the same compound, the TGI [19] was greater than 100 µM, the TGI [20] was 94.6 µM and the TGI [21] was 31.6 µM. The TGI [22] was 47.3 µM, the TGI [23] was greater than 100 µM and the TGI [24] was 74 µM. The TGI [25] was 90.5 µM, the TGI [26] was 60.3 µM and the TGI [27] was 92.8 µM. The TGI [28] was greater than 100 µM, the TGI [29] was 89.2 µM and the TGI [30] was greater than 100 µM. For the same compound, the TGI [31] was greater than 100 µM, the TGI [32] was greater than 100 µM and the TGI [33] was greater than 100 µM. For the same compound, the TGI [34] was greater than 100 µM, the TGI [35] was 93.4 µM and the TGI [36] was greater than 100 µM. For the same compound, the TGI [37] was 66.2 µM, the TGI [38] was 51.2 µM and the TGI [39] was 48.7 µM. The TGI [40] was greater than 100 µM, the TGI [41] was greater than 100 µM and the TGI [42] was greater than 100 µM. It also gave a TGI [43] greater than 100 µM, a TGI [44] greater than 100 µM and a TGI [45] greater than 100 µM. The TGI [46] was greater than 100 µM, the TGI [47] was 30.9 µM and the TGI [48] was greater than 100 µM.
For CC(=O)Nc1ccc(Nc2cc(=O)n(C)c(=O)[nH]2)cc1, the TGI [49] was greater than 100 µM, the TGI [1] was greater than 100 µM and the TGI [50] was greater than 100 µM. The TGI [51] was greater than 100 µM, the TGI [2] was greater than 100 µM and the TGI [3] was greater than 100 µM. For the same compound, the TGI [4] was greater than 100 µM, the TGI [5] was greater than 100 µM and the TGI [52] was greater than 100 µM. The TGI [7] was greater than 100 µM, the TGI [8] was greater than 100 µM and the TGI [9] was greater than 100 µM. For the same compound, the TGI [11] was greater than 100 µM, the TGI [12] was greater than 100 µM and the TGI [13] was greater than 100 µM. The TGI [14] was greater than 100 µM, the TGI [15] was greater than 100 µM and the TGI [16] was greater than 100 µM. The TGI [17] was greater than 100 µM, the TGI [53] was greater than 100 µM and the TGI [18] was greater than 100 µM. For the same compound, the TGI [19] was greater than 100 µM, the TGI [54] was greater than 100 µM and the TGI [20] was greater than 100 µM. For the same compound, the TGI [21] was greater than 100 µM, the TGI [22] was greater than 100 µM and the TGI [23] was greater than 100 µM. It also gave a TGI [24] greater than 100 µM, a TGI [25] greater than 100 µM and a TGI [26] greater than 100 µM. The TGI [27] was greater than 100 µM, the TGI [28] was greater than 100 µM and the TGI [29] was greater than 100 µM. It also gave a TGI [30] greater than 100 µM, a TGI [31] greater than 100 µM and a TGI [32] greater than 100 µM. It also gave a TGI [33] greater than 100 µM, a TGI [34] greater than 100 µM and a TGI [35] greater than 100 µM. It also gave a TGI [55] greater than 100 µM, a TGI [36] greater than 100 µM and a TGI [56] greater than 100 µM. It also gave a TGI [37] greater than 100 µM, a TGI [38] greater than 100 µM and a TGI [39] greater than 100 µM. For the same compound, the TGI [40] was greater than 100 µM, the TGI [41] was greater than 100 µM and the TGI [42] was greater than 100 µM. It also gave a TGI [43] greater than 100 µM, a TGI [44] greater than 100 µM and a TGI [57] greater than 100 µM. It also gave a TGI [45] greater than 100 µM, a TGI [58] greater than 100 µM and a TGI [46] greater than 100 µM. The TGI [59] was greater than 100 µM, the TGI [47] was greater than 100 µM and the TGI [48] was greater than 100 µM.
Work on Cc1ccc(S(=O)(=O)NC(=O)NC(CO)C(=O)O)cc1 (configuration not stated) yielded a TGI [49] greater than 100 µM, a TGI [50] greater than 100 µM and a TGI [51] greater than 100 µM. The TGI [2] was greater than 100 µM, the TGI [4] was greater than 100 µM and the TGI [5] was greater than 100 µM. For the same compound, the TGI [6] was greater than 100 µM, the TGI [8] was greater than 100 µM and the TGI [9] was greater than 100 µM. It also gave a TGI [10] greater than 100 µM, a TGI [11] greater than 100 µM and a TGI [12] greater than 100 µM. It also gave a TGI [13] greater than 100 µM, a TGI [14] greater than 100 µM and a TGI [15] greater than 100 µM. For the same compound, the TGI [16] was greater than 100 µM, the TGI [17] was greater than 100 µM and the TGI [53] was greater than 100 µM. For the same compound, the TGI [18] was greater than 100 µM, the TGI [19] was greater than 100 µM and the TGI [54] was greater than 100 µM. The TGI [20] was greater than 100 µM, the TGI [22] was greater than 100 µM and the TGI [23] was greater than 100 µM. It also gave a TGI [25] greater than 100 µM, a TGI [26] greater than 100 µM and a TGI [27] greater than 100 µM. For the same compound, the TGI [28] was greater than 100 µM, the TGI [30] was greater than 100 µM and the TGI [31] was greater than 100 µM. The TGI [32] was greater than 100 µM, the TGI [33] was greater than 100 µM and the TGI [34] was greater than 100 µM. For the same compound, the TGI [35] was greater than 100 µM, the TGI [55] was greater than 100 µM and the TGI [36] was greater than 100 µM. It also gave a TGI [56] greater than 100 µM, a TGI [37] greater than 100 µM and a TGI [38] greater than 100 µM. It also gave a TGI [39] greater than 100 µM, a TGI [40] greater than 100 µM and a TGI [41] greater than 100 µM. The TGI [42] was greater than 100 µM, the TGI [43] was greater than 100 µM and the TGI [44] was greater than 100 µM. The TGI [57] was greater than 100 µM, the TGI [45] was greater than 100 µM and the TGI [58] was greater than 100 µM. It also gave a TGI [46] greater than 100 µM, a TGI [59] greater than 100 µM and a TGI [47] greater than 100 µM. It also gave a TGI [48] greater than 100 µM.
CC(=O)N1c2ccccc2C(C)(C)OC1C(Cl)(Cl)Cl (configuration not stated) gave a TGI [49] greater than 100 µM, a TGI [1] greater than 100 µM and a TGI [50] greater than 100 µM. For the same compound, the TGI [51] was greater than 100 µM, the TGI [2] was 81 µM and the TGI [3] was greater than 100 µM. It also gave a TGI [4] greater than 100 µM, a TGI [5] greater than 100 µM and a TGI [6] greater than 100 µM. For the same compound, the TGI [52] was greater than 100 µM, the TGI [7] was 74.2 µM and the TGI [8] was greater than 100 µM. The TGI [9] was greater than 100 µM, the TGI [10] was 36.7 µM and the TGI [11] was greater than 100 µM. The TGI [12] was 78.9 µM, the TGI [13] was greater than 100 µM and the TGI [14] was greater than 100 µM. The TGI [15] was greater than 100 µM, the TGI [17] was greater than 100 µM and the TGI [18] was greater than 100 µM. It also gave a TGI [19] greater than 100 µM, a TGI [54] of 94.5 µM and a TGI [20] greater than 100 µM. For the same compound, the TGI [21] was greater than 100 µM, the TGI [22] was 83.1 µM and the TGI [23] was 35.5 µM. For the same compound, the TGI [24] was greater than 100 µM, the TGI [25] was greater than 100 µM and the TGI [26] was greater than 100 µM. The TGI [27] was 69.3 µM, the TGI [28] was greater than 100 µM and the TGI [29] was greater than 100 µM. The TGI [30] was greater than 100 µM, the TGI [31] was greater than 100 µM and the TGI [32] was greater than 100 µM. The TGI [33] was greater than 100 µM, the TGI [34] was 33.6 µM and the TGI [55] was greater than 100 µM. For the same compound, the TGI [36] was greater than 100 µM, the TGI [56] was greater than 100 µM and the TGI [37] was greater than 100 µM. The TGI [38] was greater than 100 µM, the TGI [39] was 53.4 µM and the TGI [40] was greater than 100 µM. The TGI [41] was greater than 100 µM, the TGI [42] was greater than 100 µM and the TGI [43] was 71.9 µM. It also gave a TGI [57] greater than 100 µM, a TGI [45] greater than 100 µM and a TGI [58] greater than 100 µM. For the same compound, the TGI [46] was greater than 100 µM, the TGI [59] was 84.3 µM and the TGI [47] was greater than 100 µM. For the same compound, the TGI [48] was greater than 100 µM.
